Results: PMC5310922, “A high-throughput phenotypic screen identifies clofazimine as a potential treatment for cryptosporidiosis” (PLoS Neglected Tropical Diseases, 2017)
pEC50: −log10 of the molar value. Read-outs that look alike come from different tables or passages of the source. Blank lines part the entries; values can stand above or below the molecule they belong to.

What was measured:
[1] = tested on: Cryptosporidium parvum; test: C. parvum proliferation in HCT-8 cells, 48 h high-content imaging assay; format: cell-based, Cryptosporidium parvum (Iowa strain); conditions: for pEC50 / EC50: Cryptosporidium parvum, 48 h; for pEC50: HCT-8 cells, read-out: EC50 against C. parvum; for EC50: in HCT-8 cells, value (SD; n), read-out: C. parvum 48H Assay EC50 [µM] (SD; n); for EC99 against C. parvum: concentration used in washout assay
[2] = HCT-8 host cell cytotoxicity, 48 h (nuclei count); conditions: human
Procedure: Cells were then plated (5 μL/well) into 1536-well assay plates at a density of 5.5×10^5 cells/mL (2,750 cells/well).
Plates were then washed twice with phosphate buffered saline (PBS). […] To prevent non-specific binding, the cells were blocked with SuperBlock™ T20 blocking agent (Thermo) for 1 h at room temperature. Cryptosporidium parasites were stained with 1 μg/mL fluorescein isothiocyanate (FITC)-conjugated Vicia villosa lectin (Vector Laboratories) in 1:10 diluted SuperBlock™ in PBS-T, supplemented with 3 μM 4',6-diamidino-2-phenylindole (DAPI) to visualize host cell nuclei. Staining was for 1 h at room temperature in the dark. Finally, cells were washed twice with PBS-T and the plates were sealed with adhesive foil. The plates were imaged with a CellInsight CX5 High Content Screening Platform (Thermo) with a 10× objective. […] For 1536-well format assays (primary screening, triplicate reconfirmation, and dose-response reconfirmation, one microscopic field (802,511.39 μm^2) per well, and for the 384-well washout assay, 4 fields per well were captured. The software identified primary objects (HCT-8 host cells) and spots within allowed distances to the nuclei (Cryptosporidium). Both cytotoxicity against HCT-8 cells (number of nuclei relative to DMSO-treated controls) and Cryptosporidium inhibition (spot counts relative to DMSO-treated controls) were assessed.
Images were processed by the HCS Studio Scan software, and Selected Object Count (HCT-8 cells) and Spot Count (Cryptosporidium) were analyzed in Genedata Screener (v13.0-Standard). Spot Count and Selected Object Count were normalized to neutral controls minus inhibitors (floxuridine for Spot Count, and puromycin for Selected Object Count). For single-point primary assay plates, an additional run-wise median correction was applied to reduce screen artifacts (e.g. uneven dispense), whereas no correction was applied to triplicate reconfirmation and dose-response plates. For primary screening, a compound is considered a hit by a ≥ 70% reduction in Corrected Spot Count. Compounds that caused moderate cytotoxicity were filtered out (i.e., excluding all Corrected Selected Object Counts ≤ -60%). Dose-response curves were fit with Genedata Analyzer using the Smart Fit function.

[3] = HEK293T 72 h cytotoxicity (CellTiter-Glo); format: cell-based, human; conditions: human
Procedure: (§1) Two mammalian cell lines were used for counter-screening for general cytotoxicity of hit compounds: human embryonic kidney cells (HEK293T; ATCC CRL-3216) and human hepatocellular carcinoma cells (HepG2; ATCC HB-8065). […] Compounds were pre-spotted into tissue culture-treated white solid-bottomed 1536-well plates (Greiner) in a 1:3 dose-response dilution (top concentration 20 μM). HEK293T and HepG2 cells were diluted to 75×10^3 cells/mL and 150×10^3 cells/mL, respectively, and 5 μL/well were dispensed into assay plates with a MultiFlo FX Multi-Mode Dispenser (Biotek). […] At the completion of the assay, CellTiter-Glo (Promega) was prepared at 1:2 (reagent:water) of the manufacturer’s instructions, and 2 μL were dispensed into each well. After a 5 min incubation at room temperature, luminescence readings were measured with an EnVision Multilabel Plate Reader (Perkin Elmer). […] were uploaded into Genedata Screener (v13.0-Standard), and data normalized to DMSO- and puromycin-treated wells. A four-parameter non-linear regression curve fit was applied to dose-response data using Genedata to determine the half maximal cytotoxic concentration (CC50) of each compound.

[4] = HepG2 72 h cytotoxicity (CellTiter-Glo); format: cell-based, human; conditions: human
Procedure: as §1

[5] = tested on: C. parvum; test: Host cell 3-h pre-treatment, with or without wash, then C. parvum infection; format: cell-based, Cryptosporidium parvum; conditions: for pEC50: Cryptosporidium parvum, host cells pretreated 3 h, C. parvum, 48 hpi
Procedure: A set of parallel wells were also treated and not washed prior to infection. 48 hpi, infected cells were imaged as described above, and EC50s for each compound pre- and post-wash were determined.

[6] = tested on: C. parvum; test: Mouse model of acute cryptosporidiosis, fecal oocyst shedding by flow cytometry; format: in vivo, C57BL/6 IFNγ-/- mice; conditions: for oocyst shedding, % of mock-dosed mice: 10 mg/kg oral on days 4, 5, 6 p.i., 10^4 oocysts, day 7 (within 24 h of end of treatment)
Procedure: Four week old female C57BL/6 IFNγ^-/- mice were purchased from the Jackson Laboratory and acclimated for four to ten days in specific pathogen-free conditions in the Health Sciences Biomedical Research Facility at the University of California, San Diego. Mice were provided water and chow (Teklad 2920X) ad libitum. […] Treatment regimens included 10 mg/kg, 100 mg/kg, and 0 mg/kg (vehicle only; n = 4 per group). Certain assays also involved gavage of characterized anticryptosporidial BKI-1294 (a kind gift from W. […] Oocysts were extracted via a modified discontinuous sucrose gradient technique. Briefly, […] solution was freshly prepared by dissolving 156.25 g sucrose and 2.5 mL phenol in 100 mL water. Fecal pellets were removed from storage then homogenized by vortexing and pipetting. […] Oocysts were floated from feces by centrifugation at 1,000×g for 20 min and collected with a pipet tip from the 1.064/1.103 specific gravity interface. Oocysts were rinsed once in cold PBS, pelleted by centrifugation at 15,000×g for 10 min, and resuspended in PBS. 50 μL aliquots were incubated for 30 min at room temperature with 0.25 μg fluorescein isothiocyanate-conjugated mouse anti-Cryptosporidium antibody (OW50-FITC, BioRad 2402-3007), then diluted to 200 μL with PBS. Samples were analyzed using a Guava EasyCyte flow cytometer and CytoSoft Data Acquisition and Analysis software (v5.3; Guava Technologies, Inc.), using a 100 s sampling interval, 0.59 μL/s flow rate, and logical gating of forward and side light scatter and OW50-FITC fluorescence signals. Each experimental run included positive and negative controls to calibrate region settings discriminating the oocyst-FITC population from background signals. Oocyst counts/mL sample values were exported to Excel (Microsoft Corp.) for normalization to counts/mg feces. Final graphing and statistical analyses of data were done using GraphPad Prism software (v6, GraphPad Software, Inc.). Two-way ANOVA with Dunnett's correction (Fig 4A) and unpaired multiple t-tests with False Discovery Rate approach (Fig 4B) were performed on % Vehicle data to determine significance between vehicle-treated and compound-treated mice.

[7] = Pharmacokinetic study in mice (plasma, feces, urine); conditions: 20 mg/kg oral; for fecal excretion (unchanged), first 24 h: mean ± SEM; for peak plasma concentration: mean ± SEM n=3
[8] = 7% Tween 80, 3% ethanol, 90% water

pEC50 [1]: 7.82
EC50 [1]: 0.0149 µM
dosage excreted in the urine, first 48 h [7]: < 0.15%
time plasma concentrations remained stable after the initial maximal concentration [7]: at least 20 hours
fecal excretion (unchanged), first 24 h ([7]; MC-Tween): 25.7% ± 13.3%
peak plasma concentration ([7]; MC-Tween, within first 24 h): 288 ± 2 ng/mL
fecal excretion (unchanged), first 24 h ([7]; corn oil): 14.8% ± 3.1%
peak plasma concentration ([7]; corn oil, within first 24 h): 445 ± 61 ng/mL
mean fecal excretion, next 48 h ([7]; either formulation): < 2%
Structure (SMILES): CC(C)/N=c1\cc2n(-c3ccc(Cl)cc3)c3ccccc3nc-2cc1Nc1ccc(Cl)cc1 [Clofazimine]
fold more potent against C. parvum than C. hominis ([1]; C. parvum vs C. hominis EC50): ~ 20 fold
EC99 against C. parvum [1]: 30 nM
CC50 at 48 h ([2]; HCT-8 cells): > 12500 nM
CC50 at 72 h ([3]; HEK293T cells, 72 h, value (SD; n), read-out: HEK293T 72H Cytotoxicity CC50 [µM] (SD; n)): > 20 µM
CC50 at 72 h ([4]; HepG2 cells, 72 h, value (SD; n), read-out: HepG2 72H Cytotoxicity CC50 [µM] (SD; n)): > 20 µM
pEC50 ([5]; read-out: Post-wash EC50): 8.15
pEC50 ([5]; read-out: Pre-wash EC50): 7.64
inhibition of C. parvum proliferation after compound removal by repeated washes ([5]; host cell pre-treatment, dose-response): near equipotent inhibition
oocyst shedding, % of control group ([6]; 10 mg/kg oral daily from day 4 p.i., within two days of treatment onset): 2.5% ± 1.7%
oocyst shedding, % of mock-dosed mice [6]: below 1%
oocyst shedding ([6]; once daily for three consecutive days or a single high dose): reduction of oocyst shedding below the limit detectable by flow cytometry
oocyst shedding, % of mock-treated mice ([6]; single 100 mg/kg oral dose on day 4, 1×10^6 oocysts, second day after treatment): 1.5% ± 0.4%

pEC50 [1]: 6.40
EC50 [1]: 0.388 µM
dosage excreted in the urine, first 48 h [7]: 1.6%
plasma concentration dropped to, within first 24 h post dosing [7]: 6.7 ± 0.3 ng/mL
fecal excretion (unchanged), first 24 h [7, 8]: 8.9% ± 0.5%
peak plasma concentration [7, 8]: 1282 ± 154 ng/mL
Structure (SMILES): CCOc1ccc2cc(-c3nn(CC4CCN(C)CC4)c4ncnc(N)c34)ccc2c1 [BKI-1294]
EC99 against C. parvum [1]: 2000 nM
CC50 at 48 h [2]: > 12500 nM
CC50 at 72 h [3]: 12.4 µM
CC50 at 72 h [4]: 11.1 µM
pEC50 ([5]; read-out: Post-wash EC50): 6.02
pEC50 ([5]; read-out: Pre-wash EC50): < 4.90
oocyst shedding, % of mock-dosed mice [6]: 18.1% ± 2.2%
